ChEMBL document CHEMBL1201862, “PubChem BioAssay data set” (2004)
The source made the active and inactive calls.

Tests used:
[1] = biological target: DNA damage-inducible transcript 3 protein (Mus musculus, UniProt P35639); type: functional, Cricetulus griseus
[2] = biological target: Disintegrin and metalloproteinase domain-containing protein 17 (Homo sapiens, UniProt P78536); assay: exosite inhibitors of ADAM17, dose response, biochemical (AID 743260)
[3] = ADAM10 protease inhibitors, dose response, selectivity assay for ADAM17 exosite inhibitor project, biochemical, FRET peptide substrate, recombinant human ADAM10 (AID 743259);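 also: ADAM10 enzyme cleaving a FRET peptide substrate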
Coagulation factor XII = biological target: T1, Coagulation factor XII (Homo sapiens, UniProt P00748); assay: Factor XIIa Dose Response Confirmation from Single Well HTS. [Related pubchem assays (depositor defined):AID701]; type: functional
T1 sequence (P00748 whole entry): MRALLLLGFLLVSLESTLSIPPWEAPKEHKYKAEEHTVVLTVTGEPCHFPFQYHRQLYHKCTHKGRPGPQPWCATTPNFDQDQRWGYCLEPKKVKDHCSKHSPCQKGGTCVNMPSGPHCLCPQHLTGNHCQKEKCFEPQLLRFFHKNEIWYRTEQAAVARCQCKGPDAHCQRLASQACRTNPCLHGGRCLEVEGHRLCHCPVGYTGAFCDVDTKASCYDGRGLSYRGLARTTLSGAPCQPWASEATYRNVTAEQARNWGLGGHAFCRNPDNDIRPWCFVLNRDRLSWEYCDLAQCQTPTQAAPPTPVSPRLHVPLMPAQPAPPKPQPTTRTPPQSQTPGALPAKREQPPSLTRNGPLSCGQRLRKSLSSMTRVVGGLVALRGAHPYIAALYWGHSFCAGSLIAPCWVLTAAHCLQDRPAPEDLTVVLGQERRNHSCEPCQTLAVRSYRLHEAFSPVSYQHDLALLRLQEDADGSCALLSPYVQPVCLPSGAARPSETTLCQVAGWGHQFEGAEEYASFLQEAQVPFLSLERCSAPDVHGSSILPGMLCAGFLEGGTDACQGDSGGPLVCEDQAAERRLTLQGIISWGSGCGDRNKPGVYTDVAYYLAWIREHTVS

Trypsin = Trypsin (Sus scrofa, UniProt P00761); assay: porcine trypsin inhibitors, dose response, selectivity assay for Rce1 protease inhibitor project, biochemical, quenched peptide fluorescence, cherry-pick (AID 488789)
Trypsin, sequence (P00761 whole entry): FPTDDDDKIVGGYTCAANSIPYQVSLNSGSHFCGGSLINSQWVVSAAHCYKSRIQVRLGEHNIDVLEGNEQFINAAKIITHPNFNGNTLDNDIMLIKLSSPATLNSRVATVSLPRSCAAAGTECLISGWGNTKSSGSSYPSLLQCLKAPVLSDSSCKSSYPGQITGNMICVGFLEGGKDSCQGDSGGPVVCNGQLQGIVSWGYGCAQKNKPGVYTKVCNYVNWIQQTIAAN

CAAX prenyl protease 2 = biological target: T2, CAAX prenyl protease 2 (Saccharomyces cerevisiae S288c, UniProt Q03530); type: biochemical
T2 sequence (Q03530 whole entry): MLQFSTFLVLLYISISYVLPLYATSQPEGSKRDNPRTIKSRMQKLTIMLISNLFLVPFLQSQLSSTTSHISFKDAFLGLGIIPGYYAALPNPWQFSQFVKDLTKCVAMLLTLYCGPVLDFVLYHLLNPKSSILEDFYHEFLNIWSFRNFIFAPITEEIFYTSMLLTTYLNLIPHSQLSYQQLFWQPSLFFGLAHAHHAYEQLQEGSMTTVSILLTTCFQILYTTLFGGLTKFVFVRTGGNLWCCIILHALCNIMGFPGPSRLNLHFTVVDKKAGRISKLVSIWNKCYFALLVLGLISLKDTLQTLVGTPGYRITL

[4] = mammalian cell cytotoxicity, dose response, cytotoxicity control, plate reader, cherry-pick samples (AID 504397); type: functional, cell-based
Ion channel NompC = Ion channel NompC (Danio rerio, UniProt Q7T1G6); assay: Dose response cell-based high-throughput screening assay for agonists of the transient receptor potential channel N1 (TRPN1). [Related pubchem assays (depositor defined):AID1424, AID1448]; type: functional
Ion channel NompC, sequence (Q7T1G6 whole entry): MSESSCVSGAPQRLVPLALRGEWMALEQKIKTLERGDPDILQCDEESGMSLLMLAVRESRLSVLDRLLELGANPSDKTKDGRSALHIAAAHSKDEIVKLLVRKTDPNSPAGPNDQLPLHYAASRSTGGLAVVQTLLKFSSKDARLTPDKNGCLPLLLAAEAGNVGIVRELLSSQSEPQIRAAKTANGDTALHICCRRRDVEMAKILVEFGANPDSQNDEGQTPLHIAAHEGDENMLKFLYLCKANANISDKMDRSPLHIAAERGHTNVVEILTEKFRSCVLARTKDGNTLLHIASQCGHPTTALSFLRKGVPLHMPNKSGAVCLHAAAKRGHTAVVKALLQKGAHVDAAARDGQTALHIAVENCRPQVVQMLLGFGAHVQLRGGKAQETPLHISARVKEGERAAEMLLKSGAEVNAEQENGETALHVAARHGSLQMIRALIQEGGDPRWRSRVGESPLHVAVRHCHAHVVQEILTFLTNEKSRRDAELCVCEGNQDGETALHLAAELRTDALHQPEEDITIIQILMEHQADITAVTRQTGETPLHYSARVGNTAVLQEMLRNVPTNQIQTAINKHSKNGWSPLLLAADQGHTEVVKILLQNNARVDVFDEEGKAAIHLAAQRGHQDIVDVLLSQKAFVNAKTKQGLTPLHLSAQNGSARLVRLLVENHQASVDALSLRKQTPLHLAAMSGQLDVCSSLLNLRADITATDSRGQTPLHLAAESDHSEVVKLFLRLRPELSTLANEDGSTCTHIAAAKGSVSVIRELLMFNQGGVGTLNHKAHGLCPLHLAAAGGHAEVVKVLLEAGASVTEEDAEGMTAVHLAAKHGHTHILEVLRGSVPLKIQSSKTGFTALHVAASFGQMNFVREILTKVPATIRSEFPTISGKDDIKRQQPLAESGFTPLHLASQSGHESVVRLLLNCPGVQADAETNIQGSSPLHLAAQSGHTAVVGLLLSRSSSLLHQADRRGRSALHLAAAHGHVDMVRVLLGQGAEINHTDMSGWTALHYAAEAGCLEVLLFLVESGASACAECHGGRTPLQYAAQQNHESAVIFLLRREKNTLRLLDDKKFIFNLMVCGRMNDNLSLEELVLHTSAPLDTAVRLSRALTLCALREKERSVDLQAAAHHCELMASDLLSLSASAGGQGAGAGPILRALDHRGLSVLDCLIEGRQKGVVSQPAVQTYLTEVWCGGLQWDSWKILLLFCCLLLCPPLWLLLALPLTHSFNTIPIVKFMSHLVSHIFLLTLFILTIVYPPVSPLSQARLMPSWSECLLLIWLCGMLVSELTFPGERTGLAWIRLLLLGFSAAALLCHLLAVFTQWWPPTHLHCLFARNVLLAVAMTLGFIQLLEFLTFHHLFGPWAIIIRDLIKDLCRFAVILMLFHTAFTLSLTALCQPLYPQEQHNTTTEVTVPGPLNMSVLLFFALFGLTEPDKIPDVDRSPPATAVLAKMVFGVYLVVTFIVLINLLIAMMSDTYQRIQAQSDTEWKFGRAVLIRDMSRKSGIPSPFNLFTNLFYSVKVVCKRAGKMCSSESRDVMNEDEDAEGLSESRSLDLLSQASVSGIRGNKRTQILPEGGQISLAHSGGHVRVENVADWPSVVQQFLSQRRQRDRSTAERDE

Mucolipin-3 = Mucolipin-3 (Homo sapiens, UniProt Q8TDD5); assay: Fluorescence counterscreen assay for […] agonists: dose response cell-based high-throughput screening assay to identify agonists of the transient receptor potential channel ML3 (TRPML3). [Related pubchem assays: 1424, 1448 ]; type: functional
Mucolipin-3, sequence (Q8TDD5 whole entry): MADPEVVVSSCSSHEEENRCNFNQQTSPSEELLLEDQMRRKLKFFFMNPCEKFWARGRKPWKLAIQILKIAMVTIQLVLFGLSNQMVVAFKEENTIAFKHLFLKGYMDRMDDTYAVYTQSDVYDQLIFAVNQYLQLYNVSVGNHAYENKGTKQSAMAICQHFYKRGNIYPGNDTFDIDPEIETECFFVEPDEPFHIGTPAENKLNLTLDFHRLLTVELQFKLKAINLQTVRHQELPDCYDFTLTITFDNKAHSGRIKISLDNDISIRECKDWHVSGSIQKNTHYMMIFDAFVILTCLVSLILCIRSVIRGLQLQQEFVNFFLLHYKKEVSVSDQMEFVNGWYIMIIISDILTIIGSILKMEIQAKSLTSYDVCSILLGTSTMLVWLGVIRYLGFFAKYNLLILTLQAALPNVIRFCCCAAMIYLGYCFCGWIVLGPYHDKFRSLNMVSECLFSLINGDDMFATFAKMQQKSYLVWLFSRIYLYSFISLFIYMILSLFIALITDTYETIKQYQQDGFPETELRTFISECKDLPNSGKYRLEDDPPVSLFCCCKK

[5] = biological target: T3, E3 ubiquitin-protein ligase XIAP (Homo sapiens, UniProt P98170); assay: Counter Screen using XIAP-Bir3 for Chemical Antagonists of Bir1/2 domains of IAP-family anti-apoptotic proteins. [Related pubchem assays (depositor defined):AID1018, AID1449, AID1514, AID1638, AID1749, AID1750, AID488957, AID488963]
T3 sequence (P98170 whole entry): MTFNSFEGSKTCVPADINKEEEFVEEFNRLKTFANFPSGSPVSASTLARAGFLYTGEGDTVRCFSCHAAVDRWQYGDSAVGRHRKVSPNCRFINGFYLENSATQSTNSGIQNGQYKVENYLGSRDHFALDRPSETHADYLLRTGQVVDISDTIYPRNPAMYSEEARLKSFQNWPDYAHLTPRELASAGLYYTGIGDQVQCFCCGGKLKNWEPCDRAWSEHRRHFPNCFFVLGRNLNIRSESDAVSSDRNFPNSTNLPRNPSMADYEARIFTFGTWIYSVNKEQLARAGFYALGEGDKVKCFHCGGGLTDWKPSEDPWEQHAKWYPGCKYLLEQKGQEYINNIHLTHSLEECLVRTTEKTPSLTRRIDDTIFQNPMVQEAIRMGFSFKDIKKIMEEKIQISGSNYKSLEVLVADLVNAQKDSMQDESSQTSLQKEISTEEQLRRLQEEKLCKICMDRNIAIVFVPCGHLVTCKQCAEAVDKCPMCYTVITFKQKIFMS

[6] = biological target: T3, E3 ubiquitin-protein ligase XIAP; assay: XIAP antagonists, biochemical, IAP family, fluorescence polarization (AID 1018); type: functional

Disintegrin and metalloproteinase domain-containing protein 17, sequence (P78536 whole entry, the tested form may be a part): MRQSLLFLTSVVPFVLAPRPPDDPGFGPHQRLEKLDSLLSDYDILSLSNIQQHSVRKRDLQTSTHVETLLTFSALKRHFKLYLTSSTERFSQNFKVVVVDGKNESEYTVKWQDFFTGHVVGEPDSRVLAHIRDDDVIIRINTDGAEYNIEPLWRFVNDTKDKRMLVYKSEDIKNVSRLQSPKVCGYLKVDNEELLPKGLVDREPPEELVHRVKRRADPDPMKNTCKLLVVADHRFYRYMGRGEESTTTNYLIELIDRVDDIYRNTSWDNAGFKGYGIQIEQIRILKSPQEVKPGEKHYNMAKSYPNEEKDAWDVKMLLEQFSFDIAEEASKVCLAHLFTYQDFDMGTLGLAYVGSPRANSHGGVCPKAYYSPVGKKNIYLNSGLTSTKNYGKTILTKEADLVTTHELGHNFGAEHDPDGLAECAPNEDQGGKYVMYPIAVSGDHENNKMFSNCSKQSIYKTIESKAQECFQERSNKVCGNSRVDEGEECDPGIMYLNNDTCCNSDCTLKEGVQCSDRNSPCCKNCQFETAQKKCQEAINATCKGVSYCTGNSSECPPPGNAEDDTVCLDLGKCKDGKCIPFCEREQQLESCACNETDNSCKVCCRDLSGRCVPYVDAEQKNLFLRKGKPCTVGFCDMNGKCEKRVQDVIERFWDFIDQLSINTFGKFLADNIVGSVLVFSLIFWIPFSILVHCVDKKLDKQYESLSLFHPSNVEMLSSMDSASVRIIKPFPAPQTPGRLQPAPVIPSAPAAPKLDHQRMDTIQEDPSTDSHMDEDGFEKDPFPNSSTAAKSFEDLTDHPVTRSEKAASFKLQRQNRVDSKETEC
DNA damage-inducible transcript 3 protein, sequence (P35639 whole entry, the tested form may be a part): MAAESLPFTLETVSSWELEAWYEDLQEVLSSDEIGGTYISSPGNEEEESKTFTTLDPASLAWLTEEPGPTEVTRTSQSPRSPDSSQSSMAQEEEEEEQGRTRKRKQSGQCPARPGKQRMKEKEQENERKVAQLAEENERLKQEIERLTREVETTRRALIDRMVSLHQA

Sc1nnc(C2CCCCC2)n1/N=C/C=C/c1ccccc1
Absolute IC50 (CHOP) [1]: 10 µM
IC50 [2]: > 69.5 µM (inactive)
IC50 [3]: 13.7 µM (inactive)

Cc1cc(OC(=O)c2ccco2)c2c(C)cc(=O)oc2c1
IC50 (Coagulation factor XII): > 50 µM (inconclusive)

COc1cccc(C2CC(c3ccc(Br)cc3)=NN2C(=O)c2ccncc2)c1OC (stereo unspecified)
AC50 (Trypsin): 48.7 µM (active)
AC50 (CAAX prenyl protease 2): 3.7 µM (active)
AC50 [4]: 45.2 µM (active)

COCc1nnc(SCC(=O)NCc2ccccc2)n1-c1ccccc1
EC50 (Ion channel NompC): > 29.9 µM (inactive)
EC50 (Mucolipin-3): > 29.9 µM (not active)

CSc1nc(N)nc(SCC(=O)Nc2cccc(F)c2)c1C#N
IC50 [5]: > 100 µM (inactive)
IC50 [6]: > 100 µM (not active)
